Measured values as given in PubChem BioAssay (NCI).
Where “and” joins values, the source holds several entries; their conditions need not be identical. Identical values can stand only once.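 A five-concentration, 48-hour dose response in 96-well plates underlies each endpoint, interpolated linearly between surrounding concentrations. At the GI50, growth is halved. The concentration for full growth arrest is given as TGI.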

How the values were obtained:
Experiment in all cases: inhibition of tumour cell growth, NCI panel, 48 h
[1] = tested on: A498 renal
[2] = tested on: COLO 205 colon
[3] = tested on: T-47D breast
[4] = tested on: RXF 393 renal
[5] = tested on: NCI-H460 lung
[6] = tested on: DU-145 prostate
[7] = tested on: SR leukemia
[8] = tested on: HT29 colon
[9] = tested on: SK-MEL-2 melanoma
[10] = tested on: LOX IMVI melanoma

Row | Structure (SMILES) | GI50 [1] [µM] | TGI [1] [µM] | GI50 [2] [µM] | TGI [2] | GI50 [3] [µM] | TGI [3] [µM] | GI50 [4] [µM] | TGI [4] [µM] | GI50 [5] [µM] | TGI [5] [µM] | GI50 [6] [µM] | TGI [6] [µM] | GI50 [7] [µM] | TGI [7] [µM] | GI50 [8] [µM] | TGI [8] [µM] | GI50 [9] [µM] | TGI [9] [µM] | GI50 [10] [µM] | TGI [10] [µM]
1 | CN(C)CCN1C(=O)c2cccc3c(-c4ccc5ncn(C6CCCCC6)c5c4)ccc(c23)C1=O | 2.15 | 5.1 | 1.21 | 4.14 µM | 3.16 | 23.4 | 1.35 | 2.96 | 1.01 | 7.41 | 3.14 | 13.5 | 0.496 | 5.47 | 0.938 | 8.11 | 2.19 | 7.32 |  | 
2 | C[C@@H]1CCC2[C@@H](C)[C@H](OC(=O)CCC(=O)NCCNC(=O)Cc3cc(=O)oc4cc(N(C)C)ccc34)O[C@@H]3O[C@]4(C)CC[C@@H]1C23OO4 (stereo not given in full) | 7.5 | > 89.9 | 2.62 | 15.2 µM | 0.862 | 50.2 | 3.45 | 43.2 | 2.43 | 19.2 | 10.3 | 24 | 0.561 | 6.83 | 1.05 | 19.6 | 5.4 | > 43.7 | 0.566 | 2.31
3 | COC(=O)c1cccc2c1Oc1ccccc1S2 |  | > 100 |  | 79.4 µM |  | > 100 |  | > 100 |  | > 100 |  | > 100 |  | > 100 |  | 75.2 |  | > 100 |  | > 100
4 | C=C1C(=O)O[C@H]2[C@H]1CC/C(COC(=O)NCc1cccc(OC)c1)=C\CC[C@@]1(C)O[C@@H]21 | 10.5 | 22.4 | 1.68 | 3.41 µM | 2.31 | 6.38 | 1.38 | 2.84 | 3.3 | 13.4 | 1.58 | 3.04 | 1.3 | 12 | 1.79 | 3.87 | 11.4 | 25 | 1.51 | 3.01
5 | COc1ccc(-c2cc3nccn3c(Nc3ncccc3C(N)=O)n2)cc1OC | 0.456 | > 100 | 1.21 | > 100 µM | > 100 | > 100 | 0.613 | 18.4 | 2.19 | > 100 | 2 | > 100 | 0.275 | 21.4 | 1.19 | > 100 | 0.824 | > 100 | 0.807 | > 100
6 | COc1cc2c(cc1-c1c(C)noc1C)ncc1[nH]c(=O)n([C@H](C)c3ccccn3)c12 | 1.55 | 13.1 | 0.241 | > 35.6 µM | 1.22 | > 100 | 3.3 | > 32.1 | 11.2 | > 100 | 17.3 | > 100 | 0.0756 | > 100 | 0.244 | > 100 | 6.07 | 77.6 | 0.352 | 20.3
7 | c1ccc([P+](CCC[P+](c2ccccc2)(c2ccccc2)c2ccccc2)(c2ccccc2)c2ccccc2)cc1 | 14.6 | > 100 | 2.89 | 96.6 µM and 10.5 µM | 4.1 | 84.9 |  | > 100 | 9.03 | > 100 | 19.9 | > 100 | 4.82 | > 100 | 9.89 | > 100 | 8.44 | 40 |  | > 100
8 | OCCCCC#Cc1ccccc1C#Cc1cccs1 | 9.67 | 23.3 | 16.4 | 31.5 µM | 1.18 | 23.2 | 15.8 | 30.3 | 15.1 | 29.8 | 13 | 25.7 | 1.85 | 14.5 | 12 | 27.6 | 19 | 37.9 | 13.9 | 26.8
9 | CC(C)c1ccc(O)c(O)c(=O)c1 (tested in a mixture with another compound) |  | 25.2 |  | 17.1 µM |  | > 68.6 |  | 12 |  | 0.899 |  | 33.7 |  | 4.02 |  | > 100 |  | 3.02 |  | 27.2
10 | O=C(Nc1ccc([N+](=O)[O-])cc1)c1cc2ccccc2cc1O | 0.197 | 0.628 | 2.47 | 6.41 µM | 0.39 | 8.89 | 0.34 | 1.26 | 0.365 | 6.31 | 0.484 | > 100 | 0.274 | 1.05 | 3.52 | > 29.8 | 0.285 | 0.722 | 0.405 | 
11 | Cc1cc(Cl)ccc1Nc1nc(C(F)(F)F)ccc1C(=O)N/N=C/c1ccc(N(C)C)cc1 | 2.59 | > 100 | 2.59 | > 100 µM | 1.2 | > 100 | 0.633 | 44.4 | 1.57 | > 100 | 0.915 | 8.86 | 0.872 | 6.79 | 3.8 | > 100 |  |  | 0.7 | > 100
12 | O=C1c2c(O)cccc2C(C(=O)CCCC(=O)C2c3cccc(O)c3C(=O)c3c(O)cccc32)c2cccc(O)c21 |  | 3.66 |  | 1.32 µM |  | 0.941 |  |  |  | 0.661 |  | 2.02 |  | 4.64 |  | 2.48 |  | 0.861 |  | 1.8
13 | COc1ccc(Cn2cc3c(c2-c2ccccc2)CCc2cncnc2-3)cc1 | 4.87 | 17.4 | 4.44 | 17.2 µM | 3.47 | 27 | 3.56 | 9.82 | 3.48 | 13.1 | 14.2 | 33.7 | 1.46 | 6.7 | 3.9 | 12.9 |  |  | 6.81 | 19.9
